US20250129069A1, “TRIAZOLO WRN INHIBITORS” (Nimbus Wadjet, Inc., priority 2023, published 2025)
Blank lines part the entries; values can stand above or below the compound they belong to.

Columns and labels:
[1] = molecular target: human Werner helicase (WRN, amino acids 517-1235 with L1074F point mutation) (Homo sapiens (Human), UniProt Q14191, L1074F); experiment: WRN (BV08) ADP-Glo assay; type: biochemical; details: human WRN (aa 517-1235, L1074F), read-out: ADP-Glo_hWRN_IC50
Summary of the method: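 ADP-Glo luminescence read after 60 min, 25 °C reaction of 0.15 nM WRN (517-1235, L1074F, Sf9-expressed, tag removed) with 0.1 nM DNA duplex and 5 μM ATP, following 15 min compound preincubation; 20 mM Bicine pH 7.5, 1% DMSO. IC50 from 3- or 4-parameter fit of % inhibition.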

[2] = test system: p21 induction in HCT 116 cells; experiment: p21 induction in cells (In-Cell Western, p21/GAPDH ratio); type: cell-based; details: Homo sapiens, 24 h compound incubation, read-out: p21_EC50
Summary of the method: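 EC50 values come from nonlinear fits of percent activation, defined by the 800/700 nm p21-to-GAPDH ratio scaled between DMSO (low) and internal WRN inhibitor (high) controls. In-Cell Western read after 24 h compound exposure of HCT 116 cells at 37° C. Duplicate 11-point series, 2-fold steps, usually starting at 10 μM.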

Sequence of human Werner helicase (WRN, amino acids 517-1235 with L1074F point mutation) (Q14191 other isoform, or with tags, fused parts or gaps L1074F (already in the parent)): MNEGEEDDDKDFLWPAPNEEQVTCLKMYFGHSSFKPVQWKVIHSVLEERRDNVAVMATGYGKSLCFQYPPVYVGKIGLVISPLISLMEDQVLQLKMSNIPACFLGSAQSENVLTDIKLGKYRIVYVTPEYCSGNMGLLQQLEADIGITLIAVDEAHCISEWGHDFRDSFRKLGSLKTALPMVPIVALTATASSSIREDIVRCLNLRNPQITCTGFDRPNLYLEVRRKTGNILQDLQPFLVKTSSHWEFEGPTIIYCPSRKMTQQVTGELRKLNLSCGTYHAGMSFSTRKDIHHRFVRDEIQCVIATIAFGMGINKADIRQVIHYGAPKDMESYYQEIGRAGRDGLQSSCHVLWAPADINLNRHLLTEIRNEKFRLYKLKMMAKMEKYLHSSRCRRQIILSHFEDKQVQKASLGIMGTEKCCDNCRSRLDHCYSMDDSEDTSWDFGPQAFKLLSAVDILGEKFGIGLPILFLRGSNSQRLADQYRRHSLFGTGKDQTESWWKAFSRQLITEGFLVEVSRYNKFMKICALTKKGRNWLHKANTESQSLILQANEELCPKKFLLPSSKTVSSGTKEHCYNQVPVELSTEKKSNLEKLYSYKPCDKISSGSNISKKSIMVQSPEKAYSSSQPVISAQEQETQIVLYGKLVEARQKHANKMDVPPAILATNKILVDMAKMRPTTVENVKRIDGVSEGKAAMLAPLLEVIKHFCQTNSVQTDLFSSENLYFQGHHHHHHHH

IC50 [1]: ≤ 0.005 µM
EC50 [2]: ≤ 0.5 µM
SMILES: CCc1c(N2CCN(C(=O)c3ncnc(C)c3O)[C@H]3CC[C@@H]32)c(=O)c2nn(C3CC3)nc2n1CC(=O)Nc1ccc(C(F)(F)F)cc1Cl [Compound I-153, N-[2-chloro-4-(trifluoromethyl)phenyl]-2-{2-cyclopropyl-5-ethyl-6-[(1S,6S)-5-(5-hydroxy-6-methylpyrimidine-4-carbonyl)-2,5-diazabicyclo[4.2.0]octan-2-yl]-7-oxo-2H,4H,7H-[1,2,3]triazolo[4,5-b]pyridin-4-yl}acetamide]

IC50 [1]: 0.005 to 0.05 µM
EC50 [2]: > 5 µM
SMILES: CCc1c(N2CCN(C(=O)c3ncnc(C)c3O)[C@H]3CC[C@@H]32)c(=O)c2nn(-c3ccnc(OC)c3)nc2n1CC(=O)NC1CCC2(CC1)CC2(F)F (stereo partly drawn) [Compound I-67, N-{1,1-difluorospiro[2.5]octan-6-yl}-2-{5-ethyl-6-[(1S,6S)-5-(5-hydroxy-6-methylpyrimidine-4-carbonyl)-2,5-diazabicyclo[4.2.0]octan-2-yl]-2-(2-methoxypyridin-4-yl)-7-oxo-2H,4H,7H-[1,2,3]triazolo[4,5-b]pyridin-4-yl}acetamide]

IC50 [1]: 0.005 to 0.05 µM
EC50 [2]: 2 to 5 µM
SMILES: CCc1c(N2CCN(C(=O)c3c(OC)ncc(Cl)c3O)[C@H]3CC[C@@H]32)c(=O)c2nn(C3=CCOCC3)nc2n1CC(=O)NC12CC(C3CC3)(C1)C2 [Compound I-213, 2-{6-[(1S,6S)-5-(5-chloro-4-hydroxy-2-methoxypyridine-3-carbonyl)-2,5-diazabicyclo[4.2.0]octan-2-yl]-2-(3,6-dihydro-2H-pyran-4-yl)-5-ethyl-7-oxo-2H,4H,7H-[1,2,3]triazolo[4,5-b]pyridin-4-yl}-N-{3-cyclopropylbicyclo[1.1.1]pentan-1-yl}acetamide]

IC50 [1]: ≤ 0.005 µM
EC50 [2]: ≤ 0.5 µM
SMILES: CCc1c(N2CCN(C(=O)c3c(O)ccc4ncoc34)[C@H]3CC[C@@H]32)c(=O)c2nn(-c3ccnc(OC)c3)nc2n1CC(=O)NC12CC(C(C)C)(C1)C2 [Compound I-137, 2-{5-ethyl-6-[(1S,6S)-5-(6-hydroxy-1,3-benzoxazole-7-carbonyl)-2,5-diazabicyclo[4.2.0]octan-2-yl]-2-(2-methoxypyridin-4-yl)-7-oxo-2H,4H,7H-[1,2,3]triazolo[4,5-b]pyridin-4-yl}-N-[3-(propan-2-yl)bicyclo[1.1.1]pentan-1-yl]acetamide]

IC50 [1]: 0.005 to 0.05 µM
EC50 [2]: ≤ 0.5 µM
SMILES: CCc1c(N2CCN(C(=O)c3c(O)ccc4ncoc34)CC2)c(=O)c2nn(C3CC3)nc2n1CC(=O)Nc1ccc(C(F)(F)F)cc1Cl [Compound I-133, N-[2-chloro-4-(trifluoromethyl)phenyl]-2-{2-cyclopropyl-5-ethyl-6-[4-(6-hydroxy-1,3-benzoxazole-7-carbonyl)piperazin-1-yl]-7-oxo-2H,4H,7H-[1,2,3]triazolo[4,5-b]pyridin-4-yl}acetamide]

IC50 [1]: 0.005 to 0.05 µM
EC50 [2]: 0.5 to 2 µM
SMILES: CCc1c(N2CCN(C(=O)c3c(OC)ncc(C)c3O)CC2)c(=O)c2nn(-c3ccnc(OC)c3)nc2n1CC(=O)NC1CC2(CCC2)C1 [Compound I-125, 2-{5-ethyl-6-[4-(4-hydroxy-2-methoxy-5-methylpyridine-3-carbonyl)piperazin-1-yl]-2-(2-methoxypyridin-4-yl)-7-oxo-2H,4H,7H-[1,2,3]triazolo[4,5-b]pyridin-4-yl}-N-{spiro[3.3]heptan-2-yl}acetamide]

IC50 [1]: 0.005 to 0.05 µM
EC50 [2]: 0.5 to 2 µM
SMILES: CCc1c(N2CCN(C(=O)c3c(OC)ncc(C)c3O)CC2)c(=O)c2nn(-c3ccnc(OC)c3)nc2n1CC(=O)NC12CC(CC(F)F)(C1)C2 [Compound I-121, N-[3-(2,2-difluoroethyl)bicyclo[1.1.1]pentan-1-yl]-2-{5-ethyl-6-[4-(4-hydroxy-2-methoxy-5-methylpyridine-3-carbonyl)piperazin-1-yl]-2-(2-methoxypyridin-4-yl)-7-oxo-2H,4H,7H-[1,2,3]triazolo[4,5-b]pyridin-4-yl}acetamide]

IC50 [1]: 0.005 to 0.05 µM
EC50 [2]: 0.5 to 2 µM
SMILES: CCc1c(N2CCN(C(=O)c3c(OC)ncc(C)c3O)CC2)c(=O)c2nn(-c3ccnc(OC)c3)nc2n1CC(=O)NC1CC2(CCCC2)C1 [Compound I-99, 2-{5-ethyl-6-[4-(4-hydroxy-2-methoxy-5-methylpyridine-3-carbonyl)piperazin-1-yl]-2-(2-methoxypyridin-4-yl)-7-oxo-2H,4H,7H-[1,2,3]triazolo[4,5-b]pyridin-4-yl}-N-{spiro[3.4]octan-2-yl}acetamide]

The next lines start with the compound.

SMILES: CCc1c(C23CCN(C(=O)c4ncnc(C)c4O)CC2C3)c(=O)c2nn(-c3ccnc(OC)c3)nc2n1CC(=O)NC12CC(C(C)C)(C1)C2 [Compound I-42, rel-2-{5-ethyl-6-[(1R,6S)-3-(5-hydroxy-6-methylpyrimidine-4-carbonyl)-3-azabicyclo[4.1.0]heptan-6-yl]-2-(2-methoxypyridin-4-yl)-7-oxo-2H,4H,7H-[1,2,3]triazolo[4,5-b]pyridin-4-yl}-N-[3-(propan-2-yl)bicyclo[1.1.1]pentan-1-yl]acetamide]
IC50 [1]: 0.005 to 0.05 µM
EC50 [2]: 0.5 to 2 µM

SMILES: CCc1c(N2CCN(C(=O)c3c(OC)ncc(C4CC4)c3O)CC2)c(=O)c2nn(-c3ccnc(OC)c3)nc2n1CC(=O)NC12CC(C(C)C)(C1)C2 [Compound I-65, 2-{6-[4-(5-cyclopropyl-4-hydroxy-2-methoxypyridine-3-carbonyl)piperazin-1-yl]-5-ethyl-2-(2-methoxypyridin-4-yl)-7-oxo-2H,4H,7H-[1,2,3]triazolo[4,5-b]pyridin-4-yl}-N-[3-(propan-2-yl)bicyclo[1.1.1]pentan-1-yl]acetamide]
IC50 [1]: 0.005 to 0.05 µM
EC50 [2]: 0.5 to 2 µM

SMILES: CCc1c(N2CCN(C(=O)c3c(OC)ncc(OC)c3O)CC2)c(=O)c2nn(-c3ccnc(OC)c3)nc2n1CC(=O)NC12CC(C(C)C)(C1)C2 [Compound I-64, 2-{5-ethyl-6-[4-(4-hydroxy-2,5-dimethoxypyridine-3-carbonyl)piperazin-1-yl]-2-(2-methoxypyridin-4-yl)-7-oxo-2H,4H,7H-[1,2,3]triazolo[4,5-b]pyridin-4-yl}-N-[3-(propan-2-yl)bicyclo[1.1.1]pentan-1-yl]acetamide]
IC50 [1]: 0.005 to 0.05 µM
EC50 [2]: ≤ 0.5 µM

SMILES: CCc1c(N2CCN(C(=O)c3ncnc(C)c3O)[C@H]3CC[C@@H]32)c(=O)c2nn(-c3ccnc(OC)c3)nc2n1CC(=O)NC12CC(C(C)C)(C1)C2 [Compound I-14, 2-(5-ethyl-6-((1S,6S)-5-(5-hydroxy-6-methylpyrimidine-4-carbonyl)-2,5-diazabicyclo[4.2.0]octan-2-yl)-2-(2-methoxypyridin-4-yl)-7-oxo-2,7-dihydro-4H-[1,2,3]triazolo[4,5-b]pyridin-4-yl)-N-(3-isopropylbicyclo[1.1.1]pentan-1-yl)acetamide]
IC50 [1]: 0.005 to 0.05 µM
EC50 [2]: ≤ 0.5 µM

SMILES: CCc1c(N2CCN(C(=O)c3ncnc(C)c3O)[C@H]3CC[C@@H]32)c(=O)c2nn(-c3ccnc(OC)c3)nc2n1CC(=O)NC12CC(C(F)(F)F)(C1)C2 [Compound I-11, 2-(5-ethyl-6-((1S,6S)-5-(5-hydroxy-6-methylpyrimidine-4-carbonyl)-2,5-diazabicyclo[4.2.0]octan-2-yl)-2-(2-methoxypyridin-4-yl)-7-oxo-2,7-dihydro-4H-[1,2,3]triazolo[4,5-b]pyridin-4-yl)-N-(3-(trifluoromethyl)bicyclo[1.1.1]pentan-1-yl)acetamide]
IC50 [1]: 0.005 to 0.05 µM
EC50 [2]: ≤ 0.5 µM

SMILES: CCc1c(N2CCN(C(=O)c3ncnc(C)c3O)[C@H]3CC[C@@H]32)c(=O)c2nn(-c3ccnc(C)c3)nc2n1CC(=O)Nc1ccc(C(F)(F)F)cc1F [Compound I-59, 2-{5-ethyl-6-[(1S,6S)-5-(5-hydroxy-6-methylpyrimidine-4-carbonyl)-2,5-diazabicyclo[4.2.0]octan-2-yl]-2-(2-methylpyridin-4-yl)-7-oxo-2H,4H,7H-[1,2,3]triazolo[4,5-b]pyridin-4-yl}-N-[2-fluoro-4-(trifluoromethyl)phenyl]acetamide]
IC50 [1]: ≤ 0.005 µM
EC50 [2]: ≤ 0.5 µM

SMILES: CCc1c(N2CCN(C(=O)c3c(OC)ncc(C(F)F)c3O)CC2)c(=O)c2nn(-c3ccnc(OC)c3)nc2n1CC(=O)NC12CC(C(C)C)(C1)C2 [Compound I-51, 2-(6-{4-[5-(difluoromethyl)-4-hydroxy-2-methoxypyridine-3-carbonyl]piperazin-1-yl}-5-ethyl-2-(2-methoxypyridin-4-yl)-7-oxo-2H,4H,7H-[1,2,3]triazolo[4,5-b]pyridin-4-yl)-N-[3-(propan-2-yl)bicyclo[1.1.1]pentan-1-yl]acetamide]
IC50 [1]: 0.005 to 0.05 µM
EC50 [2]: 2 to 5 µM

SMILES: CCc1c(N2CCN(C(=O)c3ncnc(C)c3O)[C@H]3CC[C@@H]32)c(=O)c2nn(-c3cc(C)n(C)n3)nc2n1CC(=O)NC12CC(C3CC3)(C1)C2 [Compound I-34, N-{3-cyclopropylbicyclo[1.1.1]pentan-1-yl}-2-[2-(1,5-dimethyl-1H-pyrazol-3-yl)-5-ethyl-6-[(1S,6S)-5-(5-hydroxy-6-methylpyrimidine-4-carbonyl)-2,5-diazabicyclo[4.2.0]octan-2-yl]-7-oxo-2H,4H,7H-[1,2,3]triazolo[4,5-b]pyridin-4-yl]acetamide]
IC50 [1]: 0.005 to 0.05 µM
EC50 [2]: ≤ 0.5 µM

SMILES: CCc1c(N2CCN(C(=O)c3c(O)cncc3OC)CC2)c(=O)c2nn(-c3ccnc(OC)c3)nc2n1CC(=O)NC12CC(C(C)C)(C1)C2 [Compound I-37, 2-{5-ethyl-6-[4-(3-hydroxy-5-methoxypyridine-4-carbonyl)piperazin-1-yl]-2-(2-methoxypyridin-4-yl)-7-oxo-2H,4H,7H-[1,2,3]triazolo[4,5-b]pyridin-4-yl}-N-[3-(propan-2-yl)bicyclo[1.1.1]pentan-1-yl]acetamide]
IC50 [1]: 0.005 to 0.05 µM
EC50 [2]: 0.5 to 2 µM
